Measured values from ChEMBL document CHEMBL5550165, “Novel quinoxaline analogs as telomeric G-quadruplex ligands exert antitumor effects related to enhanced immunomodulation” (Eur J Med Chem, 2024).
Calls of active or inactive are those of the source. The calls are words filed in the database; no cut-off is given here.

Tests used:
4T1 [1] = test: Antitumor activity against mouse 4T1 cells implanted in BALB/c mouse assessed as reduction in tumor weight at 10 mg/kg,ip every other day for 14 days; format: functional, organism-based; conditions: time 14.0 day
MDA-MB-231 [2] = test: Induction of immunogenic cell death in human MDA-MB-231 cells assessed as increase in ATP release at 1 to 4 uM incubated for 24 hrs by ELISA; format: functional, cell-based; conditions: dose 1-4 µM
U2OS = test: Cytotoxicity against human U2OS cells incubated for 24 hrs by CCK-8 reagent based spectrophotometric analysis; format: functional, cell-based
DNA [3] = test: Binding affinity to Mitochondrial DNA (unknown origin) assessed as increase in melting temperature by CD spectrophotometric analysis; format: nucleic-acid assay
Quadruplex DNA [4] = test: Binding affinity to c-MYC G-quadruplex telomeric DNA (unknown origin) assessed as […] in melting temperature by FRET assay; format: nucleic-acid assay
MDA-MB-231 [5] = test: Induction of DNA damage in human MDA-MB-231 cells assessed as increase in multi-nuclei frequency in aberrant cell at 4 uM incubated for 24 hrs by DAPI staining based microscopic analysis; format: functional
MDA-MB-231 [6] = test: Inhibition of cell migration in human MDA-MB-231 cells incubated for 48 hrs by wound scrape assay; format: functional, cell-based
MDA-MB-231 [7] = test: Induction of immunogenic cell death in human MDA-MB-231 cells assessed as increase in CRT expression incubated for 24 hrs by Alexa Fluor 647 flow cytometric assay; format: functional, cell-based
[8] = Toxicity in BALB/c mouse implanted with mouse 4T1 cells assessed as histopathological change in spleen at 10 mg/kg,ip every other day for 14 days by hematoxylin and eosin staining analysis; format: organism-based; conditions: in vivo, 336 h, time 14 day
MDA-MB-231 [9] = test: Induction of cell cycle arrest in human MDA-MB-231 cells assessed as accumulation of cells at G2/M phase at 2 uM incubated for 24 hrs by RNase/PI staining based flow cytometry (reference value: 11.3 %); format: functional
Quadruplex DNA [10] = test: Stabilization of G-quadruplex telomeric24 DNA (unknown origin) at 10 uM incubated for 40 mins by replication based ethidium bromide staining based gel electrophoresis; format: nucleic-acid assay
MDA-MB-231 [11] = test: Induction of cell cycle arrest in human MDA-MB-231 cells assessed as accumulation of cells at S phase at 1 uM incubated for 24 hrs by RNase/PI staining based flow cytometry (reference value: 6.3 %); format: functional
MDA-MB-231 [12] = test: Inhibition of colony formation in human MDA-MB-231 cells at 0.25 uM incubated for 8 days by crystal violet staining based analysis; format: functional, cell-based; conditions: time 8.0 day
DNA [13] = test: Binding affinity to DNA (unknown origin) assessed as dissociation constant by Benesi-Hildebrand equation based analysis; format: nucleic-acid assay
MDA-MB-231 [14] = test: Induction of apoptosis in human MDA-MB-231 cells assessed as increase in Annexin V-positive cells at 1 to 4 uM incubated for 24 hrs by Annexin V-633/PI staining based flow cytometry; format: functional, cell-based; conditions: dose 1-4 µM
Quadruplex DNA [15] = test: Binding affinity to G-quadruplex telomeric DNA (unknown origin) assessed as thermal shift at 10 uM by UV-Visible spectrophotometric analysis; format: nucleic-acid assay
MDA-MB-231 [16] = test: Antiproliferative activity against human MDA-MB-231 cells assessed as reduction in tumor spheroid volume at 10 uM incubated for 7 days by propidium iodide staining based fluorescence analysis; format: functional, cell-based; conditions: time 7.0 day
Quadruplex DNA [17] = test: Stabilization of G-quadruplex telomeric DNA in human MDA-MB-231 cells assessed as increase in colocalization of TRF2 and S9.6 formation foci at 3 uM incubated for 24 hrs by DAPI staining based immunofluorescence microscopic analysis; format: cell-based
[18] = Toxicity in BALB/c mouse implanted with mouse 4T1 cells assessed as histopathological change in kidney at 10 mg/kg,ip every other day for 14 days by hematoxylin and eosin staining analysis; format: organism-based; conditions: in vivo, 336 h, time 14 day
MDA-MB-231 [19] = test: Induction of DNA damage in human MDA-MB-231 cells assessed as upregulation of ATM phosphorylation at 4 uM by Western blot analysis; format: functional, cell-based; conditions: TDE = time-dependent effect
4T1 [20] = test: Antitumor immunity against mouse 4T1 cells implanted in BALB/c mouse assessed as increase in proportion of CD8+ T cells in tumor at 10 mg/kg,ip every other day for 14 days by immunohistochemistry staining based analysis; format: functional, organism-based; conditions: time 14.0 day
MDA-MB-231 [21] = test: Induction of apoptosis in human MDA-MB-231 cells assessed as upregulation of cleaved PARP expression at 1 to 4 uM incubated for 24 hrs by Western blot analysis; format: functional, cell-based; conditions: dose 1-4 µM
DNA [22] = test: Binding affinity to Hairpin DNA (unknown origin) assessed as thermal shift at 10 uM by UV-Visible spectrophotometric analysis; format: nucleic-acid assay
4T1 [23] = test: Antitumor activity against mouse 4T1 cells implanted in BALB/c mouse assessed as reduction in tumor volume at 10 mg/kg,ip every other day for 14 days; format: functional, organism-based; conditions: time 14.0 day
MDA-MB-231 [24] = test: Induction of DNA damage in human MDA-MB-231 cells assessed as upregulation of gamma-H2AX expression at 1 to 4 uM incubated for 24 hrs by Western blot analysis; format: functional, cell-based; conditions: dose 1-4 µM
MDA-MB-231 [25] = test: Induction of immunogenic cell death in human MDA-MB-231 cells assessed as increase in HMGB1 release at 1 to 4 uM incubated for 24 hrs by ELISA; format: functional, cell-based; conditions: dose 1-4 µM
BMDC = test: Induction of immunogenic cell death in BALB/c mouse BMDC cells co-cultured with mouse 4T1 cells assessed as increase in CD11c+ CD80+ CD86 cells maturation at 2.5 uM incubated for 24 hrs by flow cytometry (reference value: 69.4 %); format: functional
MCF7 = test: Cytotoxicity against human MCF7 cells incubated for 24 hrs by CCK-8 reagent based spectrophotometric analysis; format: functional, cell-based; conditions: MCF7, 24 h
Quadruplex DNA [26] = test: Stabilization of G-quadruplex telomeric DNA in human MDA-MB-231 cells assessed as increase in S9.6-positive cell nuclei at 3 uM incubated for 24 hrs by DAPI staining based immunofluorescence microscopic analysis
MDA-MB-231 [27] = test: Induction of cell cycle arrest in human MDA-MB-231 cells assessed as downregulation of Cyclin B1 expression at 1 to 4 uM incubated for 24 hrs by Western blot analysis; format: functional, cell-based; conditions: dose 1-4 µM
4T1 [28] = test: Cytotoxicity against mouse 4T1 cells incubated for 24 hrs by CCK-8 reagent based spectrophotometric analysis; format: functional, cell-based; conditions: 4T1, 24 h
Quadruplex DNA [29] = test: Binding affinity to G-quadruplex telomeric DNA (unknown origin) assessed as melting temperature by CD spectrophotometric analysis; format: nucleic-acid assay
Quadruplex DNA [30] = test: Stabilization of G-quadruplex telomeric DNA in human MDA-MB-231 cells assessed as R-loop formation in mitochondria by measuring increase in S9.6 intensity at 3 uM incubated for 24 hrs by DAPI staining based immunofluorescence microscopic analysis
MDA-MB-231 [31] = test: Induction of cell cycle arrest in human MDA-MB-231 cells assessed as accumulation of cells at G2/M phase at 1 uM incubated for 24 hrs by RNase/PI staining based flow cytometry (reference value: 11.3 %); format: functional
Quadruplex DNA [32] = test: Stabilization of G-quadruplex telomeric DNA in human MDA-MB-231 cells assessed as increase in colocalization of BG4 and TRF2 formation foci at 3 uM incubated for 24 hrs by DAPI staining based immunofluorescence microscopic analysis; format: cell-based
MDA-MB-231 [33] = test: Induction of DNA damage in human MDA-MB-231 cells assessed as upregulation of CHK2 phosphorylation at 4 uM by Western blot analysis; format: functional, cell-based; conditions: TDE = time-dependent effect

CN(C)CCN(C)c1ccc(-c2nc3ccc(C(F)(F)F)cc3nc2-c2ccc(N(C)CCN(C)C)cc2)cc1
Activity (4T1 [1]): Active
Activity (MDA-MB-231 [2]): Active
IC50 (U2OS): 3000 nM
Activity (DNA [3]): Active
Activity (Quadruplex DNA [4]): Active
Activity (MDA-MB-231 [5]): Active
inhibition (MDA-MB-231 [6]): Dose-Dependent Effect
Activity (MDA-MB-231 [7]): Dose-Dependent Effect
Activity [8]: Non-Toxic
Activity (MDA-MB-231 [9]): 11.5%
Activity (Quadruplex DNA [10]): Active
Activity (MDA-MB-231 [11]): 6.4%
inhibition (MDA-MB-231 [12]): Active
Kd (DNA [13]): 1400 nM
Activity (MDA-MB-231 [14]): Active
Activity (Quadruplex DNA [15]): Active
Activity (MDA-MB-231 [16]): inactive
Activity (Quadruplex DNA [17]): Active
Activity [18]: Non-Toxic
Activity (MDA-MB-231 [19]): Tde
Activity (4T1 [20]): Active
Activity (MDA-MB-231 [21]): Active
Activity (DNA [22]): inactive
Activity (4T1 [23]): Active
Activity (MDA-MB-231 [24]): Active
Activity (MDA-MB-231 [25]): Active
Activity (BMDC): 70.1%
IC50 (MCF7): 3.6 µM
Activity (Quadruplex DNA [26]): Active
Activity (MDA-MB-231 [27]): Active
IC50 (4T1 [28]): 4.6 µM
Tm (Quadruplex DNA [29]): 66 °C
Activity (Quadruplex DNA [30]): Active
Activity (MDA-MB-231 [31]): 11.4%
Activity (Quadruplex DNA [32]): Active
Activity (MDA-MB-231 [33]): Tde
